What was measured:
mTRPV4 = target: T1, mTRPV4 (Mus musculus, UniProt Q9EPK8); assay: Whole-cell current recordings, mTRPV4; type: cell-based, murine; conditions: 100 μM HCQ; current activated by 1 μM GSK1016790A
T1 construct: YFP or GFP; expressed in transfected cells; host or cells: HEK293T
Method: To elucidate the specificity of HCQ inhibition on TRPV3, we conducted whole-cell current recordings on other known pruritus-related TRP channels, such as hTRPA1, mTRPV1, mTRPV4, and mTRPM8 (Fig. 3, A and F). […] Because of the relatively larger inhibition of HCQ on mTRPM8 current, we tested the concentration dependence of HCQ on mTRPM8 channels.
HEK293T cells are cultured using Dulbecco's modified Eagle's medium containing 10% fetal bovine serum and 1% penicillin-streptomycin in a cell incubator with 5% CO2 at 37 °C. Plasmids of murine TRPV1, TRPV4, TRPM8, and human TRPV3, TRPA1 are labeled with YFP or GFP as indicators for subsequent electrophysiological recordings. Complementary DNA constructs of ion channels were transiently transfected with Lipofectamine 3000 (Invitrogen). And 12 to 18 h after transient transfection, electrophysiological recordings were performed.
Patch-clamp recordings were carried out with a HEKA EPC10 amplifier controlled by PatchMaster software (HEKA; https://www.heka.com/products/products_main.html#soft_pm) ([36]). Patch pipettes were prepared from borosilicate glass and fire-polished to the resistance of 3 to 8 MΩ by P-97 puller for whole-cell recordings. For single-channel recordings, patch pipettes were fire-polished to a higher resistance of 6 to 10 MΩ. […]

TRPV3 N671Q mutant = target: T2, TRPV3 N671Q mutant (Homo sapiens, UniProt Q8NET8, N671Q); assay: Whole-cell recording of TRPV3 N671Q mutant; type: cell-based
T2 construct: YFP or GFP; expressed in transfected cells; host or cells: HEK293T
T2 sequence (Q8NET8 1-790 N671Q): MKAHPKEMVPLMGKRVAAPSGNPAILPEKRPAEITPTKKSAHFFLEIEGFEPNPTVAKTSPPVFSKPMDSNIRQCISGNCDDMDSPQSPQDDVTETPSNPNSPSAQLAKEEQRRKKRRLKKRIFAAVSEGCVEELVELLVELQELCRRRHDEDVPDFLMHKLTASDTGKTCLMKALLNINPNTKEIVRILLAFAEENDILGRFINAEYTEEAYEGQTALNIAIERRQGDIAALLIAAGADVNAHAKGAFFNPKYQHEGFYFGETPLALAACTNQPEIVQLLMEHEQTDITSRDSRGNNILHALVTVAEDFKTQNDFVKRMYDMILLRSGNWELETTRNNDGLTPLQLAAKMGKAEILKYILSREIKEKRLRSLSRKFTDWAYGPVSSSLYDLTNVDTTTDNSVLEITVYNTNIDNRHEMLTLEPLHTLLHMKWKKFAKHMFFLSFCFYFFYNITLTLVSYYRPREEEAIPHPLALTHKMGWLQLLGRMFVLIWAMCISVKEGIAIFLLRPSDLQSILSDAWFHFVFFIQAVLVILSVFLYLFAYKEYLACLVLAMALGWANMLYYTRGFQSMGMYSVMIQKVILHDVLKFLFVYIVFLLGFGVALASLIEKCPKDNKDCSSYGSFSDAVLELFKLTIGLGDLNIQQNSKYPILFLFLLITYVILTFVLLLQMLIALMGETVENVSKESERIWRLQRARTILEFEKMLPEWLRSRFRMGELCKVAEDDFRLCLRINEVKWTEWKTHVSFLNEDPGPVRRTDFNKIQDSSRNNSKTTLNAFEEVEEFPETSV
From the text: As we mentioned above, HCQ may act as a pore blocker of TRPV3. To probe the binding configuration of HCQ to TRPV3, we carried out molecular docking using Rosetta suite (https://rosettacommons.org) ([21]) and validated the docking models with point mutations in TRPV3 (Fig. 4A). […] Furthermore, when we introduced L670A to L591A mutant, we also observed a left shift on the concentration–response curve on this double mutant as compared to L591A mutant (Fig. 4H).
Figure 4 Residues of the pore domain are critical for HCQ inhibition on TRPV3.A, left panel, docking model of HCQ to the pore domain of TRPV3 structure (6uw4). Right panels, top view and side view of the HCQ-binding pocket. B-J, representative whole-cell recording of TRPV3 and mutants in response to 1 mM 2-APB, the mixture of 1 mM 2-APB and concentration gradients of HCQ with the holding potential of ± 80 mV. K, concentration–response curves of HCQ in WT TRPV3 and mutants (n = 3–5 cells). L, quantification of the inhibitory ratio of HCQ (100 μM) on WT, L591A, and N671Q. […]
All data from whole-cell recordings were analyzed in Igor Pro (WaveMetrics). IC50 values were determined by fitting the Hill equation to concentration-response relationships. […]

T1 sequence (Q9EPK8 whole entry): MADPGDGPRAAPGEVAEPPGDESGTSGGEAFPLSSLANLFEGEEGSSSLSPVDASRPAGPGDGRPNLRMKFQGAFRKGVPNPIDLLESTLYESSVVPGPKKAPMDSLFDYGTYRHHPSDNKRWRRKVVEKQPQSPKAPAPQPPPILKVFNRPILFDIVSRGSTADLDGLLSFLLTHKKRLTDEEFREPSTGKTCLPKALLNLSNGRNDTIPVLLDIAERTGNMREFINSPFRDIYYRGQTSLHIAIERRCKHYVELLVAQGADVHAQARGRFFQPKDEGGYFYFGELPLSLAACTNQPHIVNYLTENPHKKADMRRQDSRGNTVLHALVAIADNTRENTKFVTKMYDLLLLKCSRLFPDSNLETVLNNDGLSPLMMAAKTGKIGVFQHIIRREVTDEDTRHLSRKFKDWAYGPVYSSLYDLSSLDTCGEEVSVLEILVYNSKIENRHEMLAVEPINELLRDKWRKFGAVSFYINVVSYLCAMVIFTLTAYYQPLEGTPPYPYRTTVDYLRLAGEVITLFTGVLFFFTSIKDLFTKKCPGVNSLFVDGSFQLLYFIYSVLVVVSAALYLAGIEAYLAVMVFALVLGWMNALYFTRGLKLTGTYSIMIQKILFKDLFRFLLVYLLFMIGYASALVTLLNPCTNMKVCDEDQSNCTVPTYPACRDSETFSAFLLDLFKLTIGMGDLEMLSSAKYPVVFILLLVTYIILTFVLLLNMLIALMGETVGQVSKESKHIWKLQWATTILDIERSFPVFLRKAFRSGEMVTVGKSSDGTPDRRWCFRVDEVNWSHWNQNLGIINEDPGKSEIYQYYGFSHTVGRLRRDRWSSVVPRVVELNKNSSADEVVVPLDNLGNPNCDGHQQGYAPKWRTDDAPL

For `CCN(CCO)CCCC(C)Nc1ccnc2cc(Cl)ccc12` (stereo not drawn) [HCQ, hydroxychloroquine], the “reduction of mTRPV4 current” value (mTRPV4) was 18.37% ± 11.21%, the inhibition at 100 µM (TRPV3 N671Q mutant; 100 μM HCQ) was 27.8% and the IC50 (TRPV3 N671Q mutant; 1 mM 2-APB, ± 80 mV) was 133 ± 8.6 µM.
